Measured values: the NIST ThermoML archive (doi:10.1021/je201193d)
± gives the expanded uncertainty stated by the source.

Details: Crystal; visual observation

| Normal melting temperature | Structure (SMILES) |
| --- | --- |
| -20.60 ± 0.39 °C | CCC(=O)O [propanoic acid] |
| 12.8 ± 0.39 °C | C=CC(=O)O [propenoic acid] |
